Experimental findings from US9079930B2, “Substituted pyrimidines” (MERCK SHARP & DOHME CORP., priority 2011, dated 2015) are described below.

Molecules are shown by their SMILES.

T1 sequence (Q9GZT9 whole entry): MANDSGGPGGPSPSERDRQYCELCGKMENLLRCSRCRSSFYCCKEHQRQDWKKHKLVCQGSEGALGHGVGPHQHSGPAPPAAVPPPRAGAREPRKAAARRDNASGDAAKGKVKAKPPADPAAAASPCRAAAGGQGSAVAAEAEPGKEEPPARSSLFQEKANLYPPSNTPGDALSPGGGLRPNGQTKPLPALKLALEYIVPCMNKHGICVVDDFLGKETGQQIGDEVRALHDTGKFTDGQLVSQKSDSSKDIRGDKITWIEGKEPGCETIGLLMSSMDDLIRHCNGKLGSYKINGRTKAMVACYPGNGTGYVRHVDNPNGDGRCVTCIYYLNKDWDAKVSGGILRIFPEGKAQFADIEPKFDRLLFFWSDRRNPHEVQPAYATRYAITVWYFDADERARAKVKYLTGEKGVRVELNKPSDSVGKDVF

The assay concerns the target T1, FLAG-tagged full length PHD2 (Homo sapiens, UniProt Q9GZT9).
T1 construct: FLAG-tagged full length PHD2 expressed in and purified from baculovirus-infected Sf9 cells; FLAG; made in house; host or cells: baculovirus-infected Sf9 cells
In words: PHD2 inhibition assay (time resolved fluorescence, HIF-1α peptide hydroxylation, VHL complex detection). The format is biochemical. The following applies: 0.2 μM 2-oxoglutarate, 0.5 μM HIF-1α peptide. On the procedure:
To each well of a 96-well plate was added 1 μL of test compound in DMSO and 20 μl of assay buffer (50 mM Tris pH 7.4/0.01% Tween-20/0.1 mg/ml bovine serum albumin/10 μM ferrous sulfate/i mM sodium ascorbate/20 μg/ml catalase) containing 0.15 μg/ml FLAG-tagged full length PHD2 expressed in and purified from baculovirus-infected Sf9 cells. After a 30 min preincubation at room temperature, the enzymatic reactions were initiated by the addition of 4 μL of substrates (final concentrations of 0.2 μM 2-oxoglutarate and 0.5 μM HIF-1α peptide biotinyl-DLDLEMLAPYIPMDDDFQL (SEQ ID NO: 1)). After 2 hr at room temperature, the reactions were terminated and signals were developed by the addition of a 25 μL quench/detection mix to a final concentration of 1 mM ortho-phenanthroline, 0.1 mM EDTA, 0.5 nM anti-(His)6 LANCE reagent (Perkin-Elmer Life Sciences), 100 nM AF647-labeled streptavidin (Invitrogen), and 2 μg/ml (His)6-VHL complex (S. Tan (2001) Protein Expr. Purif. 21, 224-234). The ratio of time resolved fluorescence signals at 665 and 620 nm was determined, and percent inhibition was calculated relative to an uninhibited control sample run in parallel.
The term IC50 denotes the point on the concentration scale where inhibition reaches its midpoint. A lower IC50 goes with greater potency. The molecule `CCOP(=O)(OCC)c1ccc(C(NC(=O)c2cnc(-c3ccccn3)nc2O)c2ccc(OC)cc2)cc1` (centres unmarked) [Compound 1-1-1, Diethyl 4-((4-hydroxy-2-(pyridin-2-yl)pyrimidine-5-carboxamido)(4-methoxyphenyl)methyl)phenylphosphonate] registered an IC50 of 0.5 to 20 nM. For `CP(=O)(O)c1cccc([C@@H](NC(=O)c2cnc(-n3cccn3)nc2O)c2ccccc2)c1` [Compound 25-1, 3-((S)-(4-hydroxy-2-(1H-pyrazol-1-yl)pyrimidine-5-carboxamido)(phenyl)methyl)phenyl(methyl)phosphinic acid], the concentration for half-maximal inhibition (IC50) is 0.5 to 20 nM. Molecule `C[C@@H](NC(=O)c1cnc(-c2ccccn2)nc1O)c1ccc(P(=O)(O)O)cc1` [Compound 3-5, (R)-4-(1-(4-hydroxy-2-(pyridin-2-yl)pyrimidine-5-carboxamido)ethyl)phenylphosphonic acid] gave an IC50 of 100 to 10000 nM. Consider `CCOP(=O)(OCC)c1ccc(C(NC(=O)c2cnc(-n3cccn3)nc2O)c2ccccc2)cc1` (centres unmarked) [Compound 8-1, Diethyl 4-((4-hydroxy-2-(1H-pyrazol-1-yl)pyrimidine-5-carboxamido)(phenyl)methyl)phenylphosphonate], for which the half-maximal inhibitory concentration (IC50) was in the range of 0.5 to 20 nM.

`CCOC(=O)CNP(=O)(NCC(=O)OCC)c1ccc(C(NC(=O)c2cnc(-c3ccccn3)nc2O)c2ccc(OC)cc2)cc1` (centres unmarked) [Compound 1-1-5, diethyl 2,2′-((4-((4-hydroxy-2-(pyridin-2-yl)pyrimidine-5-carboxamido)(4-methoxyphenyl)methyl)phenyl)phosphoryl)bis(azanediyl)diacetate]: the half-inhibitory concentration (IC50) lay within 20 to 100 nM. `COc1ccc(C(NC(=O)c2cnc(-c3cccnn3)nc2O)c2ccc(CP(=O)(O)O)cc2)cc1` (centres unmarked) [Compound 32-1, 4-((4-hydroxy-2-(pyridazin-3-yl)pyrimidine-5-carboxamido)(4-methoxyphenyl)methyl)benzylphosphonic acid]: the IC50 is 0.5 to 20 nM. The molecule `CP(=O)(O)c1ccc(C(NC(=O)c2cnc(-c3ccccn3)nc2O)c2ccccc2)cc1` (centres unmarked) [Compound 2-5, 4-((4-hydroxy-2-(pyridin-2-yl)pyrimidine-5-carboxamido)(phenyl)methyl)phenyl(methyl)phosphinic acid] registered an IC50 of 0.5 to 20 nM. Next, `CCOP(=O)(OCC)c1ccc(C(C(=O)Nc2cnc(-c3cccnn3)nc2O)c2ccccc2)cc1` (centres unmarked) [Compound 14-2, Diethyl 4-(2-(4-hydroxy-2-(pyridazin-3-yl)pyrimidin-5-ylamino)-2-oxo-1-phenylethyl)phenylphosphonate]: 100 to 10000 nM; `CP(=O)(O)c1ccc([C@H](NC(=O)c2cnc(-n3cccn3)nc2O)c2ccc(F)cc2)cc1` [Compound 18-1, 4-((R)-(4-fluorophenyl)(4-hydroxy-2-(1H-pyrazol-1-yl)pyrimidine-5-carboxamido)methyl)phenyl(methyl)phosphinic acid]: 0.5 to 20 nM.

Molecule `CP(=O)(O)c1ccc([C@@H](NC(=O)c2cnc(-n3cccn3)nc2O)C2CCCCC2)cc1` [Compound 27-1, 4-((S)-cyclohexyl(4-hydroxy-2-(1H-pyrazol-1-yl)pyrimidine-5-carboxamido)methyl)phenyl(methyl)phosphinic acid] had an IC50 of 0.5 to 20 nM. Consider `CC(NC(=O)c1cnc(-c2ccccn2)nc1O)c1ccc(P(=O)(O)O)cc1` (centres unmarked) [Compound 3-2, 4-(1-(4-hydroxy-2-(pyridin-2-yl)pyrimidine-5-carboxamido)ethyl)phenylphosphonic acid], for which the half-maximal inhibitory concentration (IC50) was 100 to 10000 nM. Next, `CP(=O)(O)c1ccc([C@H](NC(=O)c2cnc(-n3cc(F)cn3)nc2O)c2ccc(F)cc2)cc1` [Compound 29-1, 4-((R)-(2-(4-fluoro-1H-pyrazol-1-yl)-4-hydroxypyrimidine-5-carboxamido)(4-fluorophenyl)methyl)phenyl(methyl)phosphinic acid]: 0.5 to 20 nM; `CC(NC(=O)c1cnc(-n2cccn2)nc1O)c1ccc(P(=O)(O)O)cc1` (centres unmarked) [Compound 15-1, 4-(1-(4-hydroxy-2-(1H-pyrazol-1-yl)pyrimidine-5-carboxamido)ethyl)phenylphosphonic acid]: 20 to 100 nM; `CCOP(=O)(OCC)c1ccc(C(C)(C)C(=O)Nc2cnc(-n3cccn3)nc2O)cc1` [Compound 12-1, Diethyl 4-(1-(4-hydroxy-2-(1H-pyrazol-1-yl)pyrimidin-5-ylamino)-2-methyl-1-oxopropan-2-yl)phenylphosphonate]: 100 to 10000 nM.

`CCOP(=O)(O)c1ccc(C(NC(=O)c2cnc(-n3cccn3)nc2O)c2ccccc2)cc1` (centres unmarked) [Compound 8-2, Ethyl hydrogen 4-((4-hydroxy-2-(1H-pyrazol-1-yl)pyrimidine-5-carboxamido)(phenyl)methyl)phenylphosphonate]: the IC50 lay within 0.5 to 20 nM. For `CCOP(=O)(OCC)C(NC(=O)c1cnc(-n2cccn2)nc1O)c1ccc(OC)cc1` (centres unmarked) [Compound 10-1, Diethyl (4-hydroxy-2-(1H-pyrazol-1-yl)pyrimidine-5-carboxamido)(4-methoxyphenyl)methylphosphonate] the value was 0.5 to 20 nM; for `C[C@H](NC(=O)c1cnc(-c2cccnn2)nc1O)c1ccc(P(=O)(O)O)cc1` [Compound 3-7a, (S)-4-(1-(4-hydroxy-2-(pyridazin-3-yl)pyrimidine-5-carboxamido)ethyl)phenylphosphonic acid], 100 to 10000 nM.

For the molecule `COc1ccc(C(NC(=O)c2cnc(-c3cccnn3)nc2O)P(=O)(O)O)cc1` (centres unmarked) [Compound 30-2, (4-Hydroxy-2-(pyridazin-3-yl)pyrimidine-5-carboxamido)(4-methoxyphenyl)methyl phosphonic acid], the IC50 lay in the range of 0.5 to 20 nM. `CC(C)(NC(=O)c1cnc(-c2cccnn2)nc1O)c1ccc(-c2ccc(P(=O)(O)O)cc2)nc1` [Compound 33-1, 4-(5-(2-(4-hydroxy-2-(pyridazin-3-yl)pyrimidine-5-carboxamido)propan-2-yl)pyridine-2-yl)phenylphosphonic acid] returned an IC50 of 0.5 to 20 nM. Next, `CCOP(=O)(OCC)c1ccc(C(NC(=O)c2cnc(-c3cccnn3)nc2O)c2ccccc2)cc1` (centres unmarked) [Compound 8-5, Diethyl 4-((4-hydroxy-2-(pyridazin-3-yl)pyrimidine-5-carboxamido)(phenyl)methyl)phenylphosphonate]: 0.5 to 20 nM. For the molecule `CCOP(=O)(OCC)c1ccc(C(NC(=O)c2cnc(-c3ccccn3)nc2O)c2ccccc2)cn1` (centres unmarked) [Compound 4-1, Diethyl 5-((4-hydroxy-2-(pyridin-2-yl)pyrimidine-5-carboxamido)(phenyl)methyl)pyridin-2-ylphosphonate], the IC50 lay in the range of 0.5 to 20 nM. For the molecule `CP(=O)(O)c1ccc([C@H](NC(=O)c2cnc(-n3cccn3)nc2O)C2CCCCC2)cc1` [Compound 26-1, 4-((R)-cyclohexyl(4-hydroxy-2-(1H-pyrazol-1-yl)pyrimidine-5-carboxamido)methyl)phenyl(methyl)phosphinic acid], the IC50 was in the range of 0.5 to 20 nM. For `CCOP(=O)(O)c1ccc(C(C)NC(=O)c2cnc(-c3ccccn3)nc2O)cc1` (centres unmarked) [Compound 3-3, Ethyl hydrogen 4-(1-(4-hydroxy-2-(pyridin-2-yl)pyrimidine-5-carboxamido)ethyl)phenylphosphonate] the value was 100 to 10000 nM; for `CCOP(=O)(OCC)c1ccc(C(NC(=O)c2cnc(-c3ccccn3)nc2O)c2ccccc2)cc1` (centres unmarked) [Compound 2-1, Diethyl 4-((4-hydroxy-2-(pyridin-2-yl)pyrimidine-5-carboxamido)(phenyl)methyl)phenyl phosphonate], 0.5 to 20 nM. As for `CCCP(=O)(O)c1ccc(C(NC(=O)c2cnc(-n3cccn3)nc2O)c2ccccc2)cc1` (centres unmarked) [Compound 16-1, 4-((4-hydroxy-2-(1H-pyrazol-1-yl)pyrimidine-5-carboxamido)(phenyl)methyl)phenyl(propyl)phosphinic acid], the concentration for half-maximal inhibition (IC50) fell in the range of 0.5 to 20 nM.

`COc1ccc(C(NC(=O)c2cnc(-c3cccnn3)nc2O)c2cccc(P(=O)(O)O)c2)cc1` (centres unmarked) [Compound 34-1, 3-((4-hydroxy-2-(pyridazin-3-yl)pyrimidine-5-carboxamido)(4-methoxyphenyl)methyl)phenylphosphonic acid] gave an IC50 of 0.5 to 20 nM.

Consider `CCOC(=O)[C@H](C)NP(=O)(N[C@@H](C)C(=O)OCC)c1ccc(C(NC(=O)c2cnc(-c3cccnn3)nc2O)c2ccc(OC)cc2)cc1` (stereo partly drawn) [Compound 31-2, (2S,2′S)-Diethyl 2,2′-((4-((4-hydroxy-2-(pyridazin-3-yl)pyrimidine-5-carboxamido)(4-methoxyphenyl)methyl)phenyl)phosphoryl)bis(azanediyl)dipropanoate], for which the half-inhibitory concentration (IC50) is 0.5 to 20 nM. On to `CP(=O)(O)c1ccc([C@H](NC(=O)c2cnc(-n3cccn3)nc2O)c2ccc(F)cc2F)cc1` [Compound 21-1, 4-((S)-(2,4-difluorophenyl)(4-hydroxy-2-(1H-pyrazol-1-yl)pyrimidine-5-carboxamido)methyl)phenyl(methyl)phosphinic acid], for which the IC50 fell in the range of 0.5 to 20 nM. `CP(=O)(O)c1ccc([C@@H](NC(=O)c2cnc(-n3cccn3)nc2O)c2ccc(F)cc2F)cc1` [Compound 20-1, 4-((R)-(2,4-difluorophenyl)(4-hydroxy-2-(1H-pyrazol-1-yl)pyrimidine-5-carboxamido)methyl)phenyl(methyl)phosphinic acid]: the IC50 is 0.5 to 20 nM.
